Reference: patent publication US7807705B2, “Potent indole-3-carbinol-derived antitumor agents” (The Ohio State University Research Foundation, priority 2007, dated 2010)
“Also recorded” adds a separate entry of the source.

Legend:
[1] = test system: Akt, GSK3β, Bad, ERKs, JNK, p38, Bcl-2 family members, survivin, NF-kB, cyclin D1, p27, p21 in PC-3 cells; assay: Immunoblotting of signaling targets in PC-3 cells; format: cell-based, human; conditions: 48 h; for expression of Bax, p27, and p21: dose-dependent
Protocol: Immunoblotting. Biomarkers of apoptosis and signaling components associated with cell survival and growth arrest were assessed by Western immunoblotting as follows. Treated cells were washed in PBS, resuspended in SDS sample buffer, sonicated for 5 sec, and then boiled for 5 min. After brief centrifugation, equivalent amounts of proteins from the soluble fractions of cell lysates were resolved in 10% SDS-polyacrylamide gels on a Minigel apparatus, and transferred to a nitrocellulose membrane using a semi-dry transfer cell. The transblotted membrane was washed three times with TBS containing 0.05% Tween 20 (TBST). After blocking with TBST containing 5% nonfat milk for 60 min, the membrane was incubated with an appropriate primary antibody at 1:500 dilution (with the exception of anti-b-actin antibody, 1:2,000) in TBST-5% low fat milk at 4° C. for 12 h, and was then washed three times with TBST. The membrane was probed with goat anti-rabbit or anti-mouse IgG-horseradish peroxidase conjugates (1:2,500) for 90 min at room temperature, and washed three times with TBST. The immunoblots were visualized by enhanced chemiluminescence.
Indole-3-carbinol has been reported to target an array of signaling pathways to induce apoptosis and cell cycle arrest in cancer cells. […] These targets comprised three categories of biomarkers: a) phosphorylation of signaling kinases: Akt and its downstream effector GSK3β, ERKs, JNKs, and p38; b) phosphorylation/expression of Bcl-2 family members: Bad, Bax, Bcl-2, Bcl-xL, and Mcl-1; c) expression of other apoptosis and cell-cycle regulatory proteins: survivin, NF-kB/RelA, cyclin D1, p27, and p21 (FIG. 4).

[2] = test system: PC-3 cells; assay: Apoptosis analysis (morphology, caspase-3 activation and PARP cleavage by Western blot); format: cell-based, human; conditions: for caspase-3 activation and PARP cleavage: 48 hours, Western blot
Protocol: Apoptosis analysis. Drug-induced apoptotic cell death was assessed by Western blot analysis of caspase-3 activation and poly-(ADP-ribose)polymerase (PARP) cleavage. […], washed with ice-cold PBS, and resuspended in lysis buffer containing 20 mM Tris-HCl, pH 8, 137 mM NaCl, 1 mM CaCl2, 10% glycerol, 1% Nonidet P-40, 0.5% deoxycholate, 0.1% SDS, 100 μM 4-(2-aminoethyl)benzenesulfonyl fluoride, leupeptin at 10 μg/mL, and aprotinin at 10 μg/mL. Soluble cell lysates were collected after centrifugation at 10,000 g for 5 min. Equivalent amounts of proteins (60-100 μg) from each lysate were resolved in 8% SDS-polyacrylamide gels. Proteins were transferred to nitrocellulose membranes, and analyzed by immunoblotting with antibodies against caspase-3 or PARP as described below.
Drug-treated cells became shrunken, rounded, and detached from the dish.

[3] = test system: LNCaP cells; assay: Cell proliferation by direct cell counting (Coulter counter); format: cell-based, human
Protocol: (§1) Cell Proliferation. PC-3 and LNCaP cells were seeded into six-well plates at approximately 200,000 cells/well in 5% FBS-containing RPMI 1640 medium. Following a 24 h attachment period, cells were treated in triplicate with the indicated concentrations of test agent or DMSO vehicle in 5% FBS-containing RPMI-1640 medium. At different time intervals, cells were harvested by trypsinization, and numerated using a Coulter counter (Model Z1 D/T, Beckman Coulter, Fullerton, Calif.).
(§2) In line with the cell viability data, a concentration of at least 300 μM was required for indole-3-carbinol to attain the same level of efficacy.

[4] = test system: PC-3 cells; assay: as above; format: cell-based, human
Protocol: as §1, §2

[5] = Tolerability in PC-3 tumor-bearing mice (body weight, necropsy, histology, blood); format: in vivo, athymic nude mice; conditions: 10 or 25 mg/kg daily, intraperitoneal, 42 days
Protocol: (§3) In vivo studies. […] Body weights were measured weekly.

[6] = test system: Normal human prostate epithelial cells (PrEC); assay: MTT cell viability assay; format: cell-based
Source text: (§4) Cell Culture. LNCaP androgen-responsive (p53^+/+) and PC-3 androgen-nonresponsive (p53^−/−) human prostate cancer cells were purchased from the American Type Tissue Collection (Manassas, Va.) and cultured in RPMI 1640 medium (Gibco, Grand Island, N.Y.) supplemented with 10% fetal bovine serum (FBS; Gibco).—Normal human prostate epithelial cells (PrEC) were obtained from Cambrex Bioscience-Walkersville (Walkersville, Md.), and maintained in the vendor's recommended defined prostate epithelial growth medium. All cell types were cultured at 37° C. in a humidified incubator containing 5% CO2.
(§5) Cell viability analysis. The effect of test agents on cell viability was assessed by using the MTT [3-(4,5-dimethylthiazol-2-yl)-2,5-diphenyl-2H-tetrazolium bromide] assay in six to twelve replicates. Cancer cells and PrECs were grown in 5% FBS-supplemented RPMI 1640 medium or 5% FBS-supplemented prostate epithelial growth medium, respectively, in 96-well, flat-bottomed plates for 24 h, and then exposed to various concentrations of test agents in the same medium for the indicated time intervals. […] Absorbance at 570 nm was determined on a plate reader.
(§6) These agents (A1-A24) were evaluated for their ability to reduce cell viability of PC-3 (p53^−/−) androgen-nonresponsive and LNCaP (p53^+/+) androgen-responsive prostate cancer cells after 24-h exposure by MTT assay.

[7] = Maximum tolerated dose determination; format: in vivo, athymic nude mice; conditions: intraperitoneal, daily for 14 days, doses up to 25 mg/kg (tested 5, 10, 25, 50 mg/kg/day)
[8] = test system: phospho-p38; assay: Intratumoral biomarker immunoblotting of PC-3 tumor homogenates; format: in vivo, human; conditions: intraperitoneal, 42 days
Protocol: as §3

[9] = test system: phospho-Akt; assay: as above; format: in vivo, human; conditions: intraperitoneal, 42 days
Protocol: as §3

[10] = test system: p27; assay: as above; format: in vivo, human; conditions: intraperitoneal, 42 days
Protocol: as §3

[11] = test system: Bcl-xL; assay: as above; format: in vivo, human; conditions: intraperitoneal, 42 days
Protocol: as §3

[12] = test system: cyclin D1; assay: as above; format: in vivo, human; conditions: intraperitoneal, 42 days
Protocol: as §3

[13] = target: T1, PPARγ (Homo sapiens, UniProt P37231); assay: PPRE-luciferase reporter assay for PPARγ activation in PC-3 cells; format: cell-based; conditions: even at 20 μM, 24 h
T1 construct: PC-3 cells were transfected with PPRE-X3-TK-Luc; endogenous in cells; host or cells: PC-3 cells
T1 sequence (P37231 1-505): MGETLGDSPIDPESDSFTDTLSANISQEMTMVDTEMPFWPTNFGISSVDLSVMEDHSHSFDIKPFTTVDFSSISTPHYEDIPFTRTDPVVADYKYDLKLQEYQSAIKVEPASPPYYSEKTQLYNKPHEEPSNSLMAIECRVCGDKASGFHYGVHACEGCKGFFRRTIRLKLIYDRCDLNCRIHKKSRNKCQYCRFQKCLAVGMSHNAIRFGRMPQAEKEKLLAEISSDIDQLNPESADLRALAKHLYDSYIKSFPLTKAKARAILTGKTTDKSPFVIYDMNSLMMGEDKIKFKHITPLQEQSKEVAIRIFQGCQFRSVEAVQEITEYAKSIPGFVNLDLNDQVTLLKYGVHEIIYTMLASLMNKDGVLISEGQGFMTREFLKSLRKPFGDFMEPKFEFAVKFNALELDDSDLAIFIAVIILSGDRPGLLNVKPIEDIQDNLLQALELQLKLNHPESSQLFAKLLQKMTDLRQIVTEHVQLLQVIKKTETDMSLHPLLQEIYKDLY
Protocol: Luciferase assay for PPARg activation. The PPRE-x3-TK-Luc reporter vector contains three copies of the PPAR-response element (PPRE) upstream of the thymidine kinase (tk) promoter-luciferase fusion gene and was kindly provided by Dr. Bruce Spiegelman (Harvard University, Cambridge, Mass.). PC-3 cells were cultured in a 100 mm plate in phenol red-free RPMI 1640 medium containing 10% FBS until the achieved 50-70% confluency, after which they were transfected with 6 μg of the plasmid using Fugene 6 (Roche, Indianapolis, Ind.) in RPMI 1640 medium. For each transfection, herpes simplex virus-thymidine kinase (HSV-TK) promoter-driven Renilla luciferase (phRL-TK) was used as an internal control for normalization. Following transfections, cells were treated as indicated, in RPMI 1640 medium containing 10% charcoal-stripped FBS. Cells were then collected into Passive Lysis Buffer (Promega), and luciferase activities in the cell lysates were determined by luminometry. All transfection experiments were carried out in triplicate plates and repeated separately at least three times.

[14] = NMR analysis of acid stability; format: physicochemical; conditions: CD3OD plus deuterium-labeled HCl, room temperature; indole-3-carbinol t=5 min, OSU-A9 up to 8 h
Protocol: Nuclear magnetic resonance (NMR) analysis of acid stability. […] To each solution was added 100 μl of deuterium-labeled HCl, and NMR spectra were recorded in a 300 MHz NMR spectrometer at room temperature at different time intervals.
Individual compounds (20 mg) were dissolved in 1 ml of deuterium-labeled methanol (CD3OD).

[15] = test system: PC-3 (p53−/−) androgen-nonresponsive prostate cancer cells; assay: MTT cell viability assay; format: cell-based, human; conditions: PC-3 cells, 24-h exposure
Source text: as §4, §5, §6

[16] = test system: LNCaP (p53+/+) androgen-responsive prostate cancer cells; assay: MTT cell viability assay; format: cell-based, human; conditions: 24-h exposure
Source text: as §4, §5, §6

[17] = test system: androgen receptor (AR); assay: Immunoblotting of AR expression in LNCaP cells; format: cell-based, human; conditions: highest doses examined (data not shown)

## O=[N+]([O-])c1cc(S(=O)(=O)n2cc(CO)c3ccccc32)ccc1Cl [OSU-A9, [1-(3′-nitro-4′-chlorobenzenesulfonyl)-1H-indol-3-yl]-methanol]
[1]
  phosphorylation of Akt and its substrates GSK3b and Bad: dose-dependent dephosphorylation
  phosphorylation of ERKs, JNK, and p38: increased phosphorylation
  expression of Bax, p27, and p21: up-regulating the expression
[2]; 5 μM, 24 h
  morphological changes, light microscopy: pronounced morphological changes
[2]
  caspase-3 activation and PARP cleavage: dose-dependent effect
[2]; caspase-3 activation and PARP cleavage
  apoptosis-inducing potency versus indole-3-carbinol: 100 fold
[3]
  concentration that completely suppressed cell proliferation: ≥ 2.5 µM
[4]
  concentration that completely suppressed cell proliferation: ≥ 2.5 µM
[5]
  body weight compared to vehicle-treated controls: without significant loss of body weight
  hematological and serum chemistry findings: normal hematological and serum chemistry findings
  overt toxicity / tolerability: well-tolerated; also recorded: without overt signs of toxicity
[5]; limited to peritoneal surfaces
  lesions observed at necropsy: mild to moderate amounts of fibrous adhesions
[5]; with the exception of the affected peritoneum
  microscopic lesions in tissues examined: no treatment-associated lesions; also recorded: no significant lesions
[6]; PrEC IC50 versus PC-3 and LNCaP IC50
  lower sensitivity of PrECs than the prostate cancer cells: 2.2-4.5 fold
[6]; PrECs, MTT assay
  IC50: 9 µM
[7]
  weight loss: No apparent weight loss
[8]; 10 mg/kg per day
  increase in intratumoral phospho-p38: 9.0±3.5 fold
[8]; 25 mg/kg per day
  increase in intratumoral phospho-p38: 10.1±2.4 fold
[9]; 10 mg/kg per day
  reduction in intratumoral phospho-Akt compared to vehicle-treated controls: 83±8%
[9]; 25 mg/kg per day
  reduction in intratumoral phospho-Akt compared to vehicle-treated controls: 94±1%
[10]; 10 mg/kg per day
  increase in intratumoral p27: 1.8±0.3 fold
[10]; 25 mg/kg per day
  increase in intratumoral p27: 2.7±1.4 fold
[11]; 10 mg/kg per day
  reduction in intratumoral Bcl-xL: 34±8%
[11]; 25 mg/kg per day
  reduction in intratumoral Bcl-xL: 86±4%
[12]; 10 mg/kg per day
  reduction in intratumoral cyclin D1: 70±3%
[12]; 25 mg/kg per day
  reduction in intratumoral cyclin D1: 88±3%
[13]
  PPARγ transactivation: lacked appreciable activity
[14]
  chemical stability in 0.1 N HCl, CH2OH proton signal by NMR: no appreciable change

## OCc1c[nH]c2ccccc12 [indole-3-carbinol]
[15]
  IC50: 512 µM
[16]
  IC50: 267 µM
[1]
  phosphorylation of Akt and its substrates GSK3b and Bad: dose-dependent dephosphorylation
  phosphorylation of ERKs, JNK, and p38: increased phosphorylation
  expression of Bax, p27, and p21: up-regulating the expression
[2]; 500 μM, 48 h
  morphological changes, light microscopy: pronounced morphological changes
[2]
  caspase-3 activation and PARP cleavage: dose-dependent effect
[3]
  concentration that completely suppressed cell proliferation: at least 300 μM
[4]
  concentration that completely suppressed cell proliferation: at least 300 μM
[17]
  AR expression: neither agents had an appreciable effect
[14]
  chemical stability in 0.1 N HCl, CH2OH proton signal by NMR: immediate shift of the CH2 signal
